Assay [1] relates to Cricetinae gen. sp. The experiment in a line: Compound was tested for its ability to inhibit the intestinal absorption of [3H]cholesterol in cholesterol-fed hamsters at 5 mg/kg dose. It is filed as functional, Cricetulus griseus.
For assay [2], the system named is Cricetinae gen. sp. The experiment in a line: Compound was tested for its ability to inhibit the intestinal absorption of [3H]cholesterol in cholesterol-fed hamsters at 100 mg/kg dose. It is filed as functional, Cricetulus griseus.
Assay [3] concerns Cricetinae gen. sp. Kind of assay: Compound was tested for its ability to inhibit the intestinal absorption of [3H]cholesterol in cholesterol-fed hamsters at 10 mg/kg dose. The assay is classed as functional, Cricetulus griseus.
Assay [4] deals with Cricetinae gen. sp. Kind of assay: Compound was tested for its ability to inhibit the intestinal absorption of [3H]cholesterol in cholesterol-fed hamsters at 200 mg/kg dose. It is filed as functional, Cricetulus griseus.
Assay [5] deals with Cricetinae gen. sp. The experiment in a line: Ability to inhibit the intestinal absorption of [3H]cholesterol in cholesterol-fed hamsters. It is filed as functional.

In assay [1], `C[C@@H]1CC[C@@]2(OC1)OC1CC3C4CC[C@H]5C[C@@H](O[C@@H]6O[C@@H](CO)[C@@H](O[C@@H]7O[C@@H](COC(=O)Nc8c(Cl)cccc8Cl)[C@@H](OC(=O)Nc8c(Cl)cccc8Cl)[C@H](O)[C@@H]7O)[C@H](O)[C@@H]6O)CC[C@]5(C)C4C(=O)C[C@]3(C)C1[C@@H]2C` (some centres not stated) came in with an inhibition in vivo at 5 mg/kg of 40%.
`C[C@]12CC[C@@H]3c4ccc(O[C@@H]5O[C@@H](CO)[C@@H](O[C@@H]6O[C@@H](CO)[C@@H](O)[C@H](O)[C@@H]6O)[C@H](O)[C@@H]5O)cc4CC[C@H]3[C@@H]1CCC2=O` showed an inhibition in vivo at 100 mg/kg in assay [2] of 14%.
In assay [3], `C[C@@H]1CC[C@@]2(OC1)OC1C[C@H]3[C@@H]4CC[C@H]5C[C@@H](O[C@@H]6O[C@@H](CO)[C@@H](O[C@@H]7O[C@@H](CO)[C@@H](O)[C@H](O)[C@@H]7O)[C@H](O)[C@@H]6O)CC[C@]5(C)[C@H]4C(=O)C[C@]3(C)C1[C@@H]2C` (some centres not stated) came in with an inhibition in vivo at 10 mg/kg of 23%.
In assay [4], `C[C@@]12CCC[C@H]1[C@@H]1CC[C@H]3C[C@@H](O[C@@H]4O[C@@H](CO)[C@@H](O[C@@H]5O[C@@H](CO)[C@@H](O)[C@H](O)[C@@H]5O)[C@H](O)[C@@H]4O)CC[C@]3(C)[C@H]1CC2` came in with an inhibition in vivo at 200 mg/kg of 37%.
In turn, `C[C@@H]1CC[C@@]2(OC1)OC1CC3C4CC[C@H]5C[C@@H](O[C@@H]6O[C@@H](COC(=O)Nc7ccc(Cl)cc7)[C@@H](O[C@@H]7O[C@@H](CO)[C@@H](O)[C@H](O)[C@@H]7O)[C@H](O)[C@@H]6O)CC[C@]5(C)C4C(=O)C[C@]3(C)C1[C@@H]2C` (some centres not stated) returned an inhibition in vivo at 5 mg/kg in assay [1] of 37%.
Regarding `C[C@@H]1CC[C@@]2(OC1)OC1C[C@H]3[C@@H]4CC[C@H]5C[C@@H](O[C@@H]6O[C@@H](CO)[C@@H](O[C@@H]7O[C@@H](COC(=O)Nc8ccccc8F)[C@@H](O)[C@H](O)[C@@H]7O)[C@H](O)[C@@H]6O)CC[C@]5(C)[C@H]4C(=O)C[C@]3(C)C1[C@@H]2C` (some centres not stated), in assay [5], the ED50 amounted to 0.2 mg/kg.
In assay [5], `C[C@@H]1CC[C@@]2(OC1)OC1CC3C4CC[C@H]5C[C@@H](O[C@@H]6O[C@@H](CO)[C@@H](O[C@@H]7O[C@@H](COC(=S)Nc8ccccc8)[C@@H](OC(=S)Nc8ccccc8)[C@H](O)[C@@H]7O)[C@H](O)[C@@H]6O)CC[C@]5(C)C4C(=O)C[C@]3(C)C1[C@@H]2C` (some centres not stated) yielded an ED50 of 0.04 mg/kg.
Compound `C[C@@H]1CC[C@@]2(OC1)OC1CC3C4CC[C@H]5C[C@@H](O[C@@H]6O[C@@H](CO)[C@@H](O[C@@H]7O[C@@H](COC(=O)Nc8ccccc8F)[C@@H](OC(=O)Nc8ccccc8F)[C@H](O)[C@@H]7O)[C@H](O)[C@@H]6O)CC[C@]5(C)C4CC(=O)[C@]3(C)C1[C@@H]2C` (some centres not stated) had an ED50 in assay [5] of 0.07 mg/kg.
In the case of `C[C@@H]1CC[C@@]2(OC1)OC1CC3C4CC[C@H]5C[C@@H](O[C@@H]6O[C@@H](CO)[C@@H](O[C@@H]7O[C@@H](COC(=O)Nc8ccc(F)cc8)[C@@H](OC(=O)Nc8ccc(F)cc8)[C@H](O)[C@@H]7O)[C@H](O)[C@@H]6O)CC[C@]5(C)C4C(=O)C[C@]3(C)C1[C@@H]2C` (some centres not stated), the ED50 in assay [5] turned out to be 0.2 mg/kg.
Take `C[C@@H]1CC[C@@]2(OC1)OC1CC3C4CC[C@H]5C[C@@H](O[C@@H]6O[C@@H](CO)[C@@H](O[C@@H]7O[C@@H](COC(=O)Nc8ccccc8F)[C@@H](OC(=O)Nc8ccccc8F)[C@H](O)[C@@H]7O)[C@H](O)[C@@H]6O)CC[C@]5(C)C4CC[C@]3(C)C1[C@@H]2C` (some centres not stated): the ED50 in assay [5] came out at 1 mg/kg.
Still for that read-out and setting: the same measure for `C[C@@H]1CC[C@@]2(OC1)OC1CC3C4CC[C@H]5C[C@@H](O[C@@H]6O[C@@H](CO)[C@@H](O[C@@H]7O[C@@H](COC(=O)Nc8cccc(F)c8)[C@@H](OC(=O)Nc8cccc(F)c8)[C@H](O)[C@@H]7O)[C@H](O)[C@@H]6O)CC[C@]5(C)C4C(=O)C[C@]3(C)C1[C@@H]2C` (some centres not stated): 0.1 mg/kg; for `CC1CC[C@@]2(OC1)OC1C[C@H]3[C@@H]4CC[C@H]5C[C@@H](OC6OC(CCl)C(OC7OC(CCl)C(O)C(O)C7O)C(O)C6O)CC[C@]5(C)[C@H]4C(=O)C[C@]3(C)C1[C@@H]2C` (some centres not stated): 0.5 mg/kg.
